Measurements published in patent publication US20230330093A1, “APPLICATION OF NITROGEN-CONTAINING SATURATED HETEROCYCLIC COMPOUND” (SHANGHAI PHARMACEUTICALS HOLDING CO., LTD., priority 2020, published 2023).

Test system: cynomolgus monkeys
Experiment: 4-week safety study: serum biochemistry
Format: in vivo
Experimental: […] (1) Hematological and coagulation index examination were performed using a Bayer ADVIA2120 (Germany) and a Sysmex CA-1500 (Japan). (2) The serum biochemical examination was assessed using a HITACHI 7080 automated analyzer (Japan) and an Easylyte PLUS electrolyte analyzer (MEDICA, America). (3) The 24-h pooled urine of each animal was collected by a tray under each cage. Urinalysis was carried out using Uritest-300 (China). (4) The 24-h pooled faeces of each monkey were collected by a tray under each cage. Fecal occult blood was detected. (5) ACCESS 2 Chemiluminescence immunoassay was used for myocardial troponin (TropI, non-GLP) test.

Compound: COC(=O)NCCCn1nc([C@@H](C)N(C(=O)[C@H]2CNCCO2)C2CC2)c2ccc(C)nc21 [compound of Formula I]
- BUN (Female, 20 mg/kg, d0): 6.1 ± 1.1 mmol/L
- CHOL (Female, 20 mg/kg, d0): 3.0 ± 0.5 mmol/L
- CPK (Female, 20 mg/kg, d0): 158.4 ± 63.5 U · L^−1
- CREA (Female, 20 mg/kg, d0): 59 ± 4 µM
- K (Female, 20 mg/kg, d0): 5.0 ± 0.3 mmol/L
- Na (Female, 20 mg/kg, d0): 149.4 ± 3.5 mmol/L
- BUN (Female, 20 mg/kg, d14): 5.4 ± 0.9 mmol/L
- CHOL (Female, 20 mg/kg, d14): 2.8 ± 0.2 mmol/L
- CPK (Female, 20 mg/kg, d14): 151.6 ± 45.2 U · L^−1
- CREA (Female, 20 mg/kg, d14): 52.4 ± 3.8 µM
- K (Female, 20 mg/kg, d14): 5.2 ± 0.2 mmol/L
- Na (Female, 20 mg/kg, d14): 149.6 ± 1.7 mmol/L
- BUN (Female, 20 mg/kg, d26): 6.3 ± 1.1 mmol/L
- CHOL (Female, 20 mg/kg, d26): 2.7 ± 0.3 mmol/L
- CPK (Female, 20 mg/kg, d26): 149.4 ± 58.7 U · L^−1
- CREA (Female, 20 mg/kg, d26): 51.2 ± 3.6 µM
- K (Female, 20 mg/kg, d26): 4.9 ± 0.5 mmol/L
- Na (Female, 20 mg/kg, d26): 149.2 ± 4.3 mmol/L
- BUN (Female, 20 mg/kg, d 56): 6.0 ± 0.6 mmol/L
- CHOL (Female, 20 mg/kg, d 56): 3.0 ± 0.1 mmol/L
- CPK (Female, 20 mg/kg, d 56): 129.0 ± 5.7 U · L^−1
- CREA (Female, 20 mg/kg, d 56): 51.5 ± 4.9 µM
- K (Female, 20 mg/kg, d 56): 5.0 ± 0.5 mmol/L
- Na (Female, 20 mg/kg, d 56): 147.2 ± 4.2 mmol/L
- BUN (Female, 100 mg/kg, d0): 5.9 ± 1.1 mmol/L
- CHOL (Female, 100 mg/kg, d0): 3.8 ± 1.3 mmol/L
- CPK (Female, 100 mg/kg, d0): 187.6 ± 75.0 U · L^−1
- CREA (Female, 100 mg/kg, d0): 55.2 ± 4.7 µM
- K (Female, 100 mg/kg, d0): 4.5 ± 0.4 mmol/L
- Na (Female, 100 mg/kg, d0): 149.4 ± 1.9 mmol/L
- BUN (Female, 100 mg/kg, d14): 6.4 ± 0.8 mmol/L
- CHOL (Female, 100 mg/kg, d14): 2.9 ± 0.6 mmol/L
- CPK (Female, 100 mg/kg, d14): 247.2 ± 89.5 U · L^−1
- CREA (Female, 100 mg/kg, d14): 55.2 ± 3.8 µM
- K (Female, 100 mg/kg, d14): 4.7 ± 0.5 mmol/L
- Na (Female, 100 mg/kg, d14): 149.8 ± 3.7 mmol/L
- BUN (Female, 100 mg/kg, d26): 6.4 ± 1.6 mmol/L
- CHOL (Female, 100 mg/kg, d26): 3.1 ± 0.5 mmol/L
- CPK (Female, 100 mg/kg, d26): 195.0 ± 96.8 U · L^−1
- CREA (Female, 100 mg/kg, d26): 51.2 ± 3.6 µM
- K (Female, 100 mg/kg, d26): 4.8 ± 0.6 mmol/L
- Na (Female, 100 mg/kg, d26): 149.6 ± 3.8 mmol/L
- BUN (Female, 100 mg/kg, d 56): 5.2 ± 0.2 mmol/L
- CHOL (Female, 100 mg/kg, d 56): 3.6 ± 0.2 mmol/L
- CPK (Female, 100 mg/kg, d 56): 112.0 ± 12.7 U · L^−1
- CREA (Female, 100 mg/kg, d 56): 54.5 ± 4.9 µM
- K (Female, 100 mg/kg, d 56): 4.2 ± 0.2 mmol/L
- Na (Female, 100 mg/kg, d 56): 147.9 ± 1.3 mmol/L
- BUN (Female, 450 mg/kg, d0): 6.1 ± 0.7 mmol/L
- CHOL (Female, 450 mg/kg, d0): 3.3 ± 0.4 mmol/L
- CPK (Female, 450 mg/kg, d0): 163.2 ± 56.2 U · L^−1
- CREA (Female, 450 mg/kg, d0): 54.4 ± 7.1 µM
- K (Female, 450 mg/kg, d0): 5.1 ± 0.5 mmol/L
- Na (Female, 450 mg/kg, d0): 150.1 ± 2.2 mmol/L
- BUN (Female, 450 mg/kg, d14): 14.3 ± 11.8 mmol/L
- CHOL (Female, 450 mg/kg, d14): 2.4 ± 0.9 mmol/L
- CPK (Female, 450 mg/kg, d14): 815.2 ± 1316.0 U · L^−1
- CREA (Female, 450 mg/kg, d14): 162 ± 204 µM
- K (Female, 450 mg/kg, d14): 5.5 ± 0.2 mmol/L
- Na (Female, 450 mg/kg, d14): 144.6 ± 3.5 mmol/L
- BUN (Female, 450 mg/kg, d26): 9.7 ± 1.0 mmol/L
- CHOL (Female, 450 mg/kg, d26): 2.0 ± 0.7 mmol/L
- CPK (Female, 450 mg/kg, d26): 328.5 ± 259.1 U · L^−1
- CREA (Female, 450 mg/kg, d26): 64.3 ± 7.1 µM
- K (Female, 450 mg/kg, d26): 5.3 ± 0.4 mmol/L
- Na (Female, 450 mg/kg, d26): 145.0 ± 2.6 mmol/L
- BUN (Female, 450 mg/kg, d 56): 5.6 ± 0.6 mmol/L
- CHOL (Female, 450 mg/kg, d 56): 3.1 ± 0.3 mmol/L
- CPK (Female, 450 mg/kg, d 56): 290.0 ± 176.8 U · L^−1
- CREA (Female, 450 mg/kg, d 56): 57 ± 2.8 µM
- K (Female, 450 mg/kg, d 56): 4.8 ± 0.2 mmol/L
- Na (Female, 450 mg/kg, d 56): 145.7 ± 0.9 mmol/L
- BUN (Male, 20 mg/kg, d0): 5.1 ± 0.9 mmol/L
- CHOL (Male, 20 mg/kg, d0): 2.9 ± 0.5 mmol/L
- CPK (Male, 20 mg/kg, d0): 156.6 ± 76.3 U · L^−1
- CREA (Male, 20 mg/kg, d0): 64.2 ± 7.2 µM
- K (Male, 20 mg/kg, d0): 5.1 ± 0.3 mmol/L
- Na (Male, 20 mg/kg, d0): 148.7 ± 2.0 mmol/L
- BUN (Male, 20 mg/kg, d14): 4.8 ± 0.5 mmol/L
- CHOL (Male, 20 mg/kg, d14): 2.6 ± 0.4 mmol/L
- CPK (Male, 20 mg/kg, d14): 128.2 ± 50.8 U · L^−1
- CREA (Male, 20 mg/kg, d14): 65 ± 4.3 µM
- K (Male, 20 mg/kg, d14): 4.6 ± 0.3 mmol/L
- Na (Male, 20 mg/kg, d14): 148.7 ± 1.6 mmol/L
- BUN (Male, 20 mg/kg, d26): 5.6 ± 0.3 mmol/L
- CHOL (Male, 20 mg/kg, d26): 2.7 ± 0.5 mmol/L
- CPK (Male, 20 mg/kg, d26): 154.4 ± 21.5 U · L^−1
- CREA (Male, 20 mg/kg, d26): 64 ± 5.5 µM
- K (Male, 20 mg/kg, d26): 5.4 ± 0.9 mmol/L
- Na (Male, 20 mg/kg, d26): 147.9 ± 1.9 mmol/L
- BUN (Male, 20 mg/kg, d 56): 5.2 ± 0.4 mmol/L
- CHOL (Male, 20 mg/kg, d 56): 2.6 ± 0.1 mmol/L
- CPK (Male, 20 mg/kg, d 56): 161.0 ± 87.7 U · L^−1
- CREA (Male, 20 mg/kg, d 56): 64 ± 5.7 µM
- K (Male, 20 mg/kg, d 56): 5.3 ± 1.1 mmol/L
- Na (Male, 20 mg/kg, d 56): 144.6 ± 1.6 mmol/L
- BUN (Male, 100 mg/kg, d0): 5.7 ± 0.5 mmol/L
- CHOL (Male, 100 mg/kg, d0): 3.6 ± 0.4 mmol/L
- CPK (Male, 100 mg/kg, d0): 161.4 ± 12.3 U · L^−1
- CREA (Male, 100 mg/kg, d0): 66.6 ± 8.6 µM
- K (Male, 100 mg/kg, d0): 4.8 ± 0.4 mmol/L
- Na (Male, 100 mg/kg, d0): 149.1 ± 2.9 mmol/L
- BUN (Male, 100 mg/kg, d14): 6.1 ± 1.5 mmol/L
- CHOL (Male, 100 mg/kg, d14): 3.0 ± 0.6 mmol/L
- CPK (Male, 100 mg/kg, d14): 213.4 ± 67.1 U · L^−1
- CREA (Male, 100 mg/kg, d14): 63 ± 4.1 µM
- K (Male, 100 mg/kg, d14): 4.8 ± 0.4 mmol/L
- Na (Male, 100 mg/kg, d14): 148.3 ± 2.5 mmol/L
- BUN (Male, 100 mg/kg, d26): 5.9 ± 1.0 mmol/L
- CHOL (Male, 100 mg/kg, d26): 2.8 ± 0.3 mmol/L
- CPK (Male, 100 mg/kg, d26): 179.8 ± 42.1 U · L^−1
- CREA (Male, 100 mg/kg, d26): 63 ± 8.5 µM
- K (Male, 100 mg/kg, d26): 5.2 ± 0.2 mmol/L
- Na (Male, 100 mg/kg, d26): 147.1 ± 2.4 mmol/L
- BUN (Male, 100 mg/kg, d 56): 5.7 ± 1.5 mmol/L
- CHOL (Male, 100 mg/kg, d 56): 2.8 ± 0.6 mmol/L
- CPK (Male, 100 mg/kg, d 56): 109.0 ± 9.9 U · L^−1
- CREA (Male, 100 mg/kg, d 56): 58.5 ± 3.5 µM
- K (Male, 100 mg/kg, d 56): 4.2 ± 0.0 mmol/L
- Na (Male, 100 mg/kg, d 56): 146.5 ± 0.7 mmol/L
- BUN (Male, 450 mg/kg, d0): 5.3 ± 0.6 mmol/L
- CHOL (Male, 450 mg/kg, d0): 3.4 ± 0.5 mmol/L
- CPK (Male, 450 mg/kg, d0): 140.4 ± 44.6 U · L^−1
- CREA (Male, 450 mg/kg, d0): 68.6 ± 5.1 µM
- K (Male, 450 mg/kg, d0): 5.2 ± 0.8 mmol/L
- Na (Male, 450 mg/kg, d0): 148.4 ± 2.5 mmol/L
- BUN (Male, 450 mg/kg, d14): 11.3 ± 6.7 mmol/L
- CHOL (Male, 450 mg/kg, d14): 1.8 ± 0.3 mmol/L
- CPK (Male, 450 mg/kg, d14): 290.2 ± 120.0 U · L^−1
- CREA (Male, 450 mg/kg, d14): 116 ± 74.4 µM
- K (Male, 450 mg/kg, d14): 5.0 ± 0.2 mmol/L
- Na (Male, 450 mg/kg, d14): 146.4 ± 3.3 mmol/L
- BUN (Male, 450 mg/kg, d26): 10.4 ± 3.1 mmol/L
- CHOL (Male, 450 mg/kg, d26): 1.7 ± 0.3 mmol/L
- CPK (Male, 450 mg/kg, d26): 133.6 ± 44.6 U · L^−1
- CREA (Male, 450 mg/kg, d26): 79 ± 2.8 µM
- K (Male, 450 mg/kg, d26): 5.2 ± 0.2 mmol/L
- Na (Male, 450 mg/kg, d26): 144.3 ± 2.2 mmol/L
- BUN (Male, 450 mg/kg, d 56): 5.1 ± 0.0 mmol/L
- CHOL (Male, 450 mg/kg, d 56): 2.8 ± 0.3 mmol/L
- CPK (Male, 450 mg/kg, d 56): 99.5 ± 7.8 U · L^−1
- CREA (Male, 450 mg/kg, d 56): 66.5 ± 3.5 µM
- K (Male, 450 mg/kg, d 56): 4.8 ± 0.8 mmol/L
- Na (Male, 450 mg/kg, d 56): 145.3 ± 1.1 mmol/L
- CREA (high-dose female that died early on d23, d14 data): 526 µM
- CHOL (high-dose males): significantly decreased
- Serum Na level (high-dose males, d26, statistically significant): decreased slightly
- BUN (high-dose, both sexes): significantly increased
- CPK (high-dose, both sexes): significantly increased
- CREA (high-dose, both sexes): significantly increased
